Source: patent publication US20240124445A1, “BENZENE RING COMPOUND AND USE THEREOF” (NANJING SHIJIANG MEDICINE TECHNOLOGY CO., LTD, priority 2020, published 2024)

tested on: not listed separately; assay: Stability in human liver microsome; assay type: in vitro ADME; settings: liver microsomes, pH 7.4, 1.5 μM drug solution, NADPH, 37° C., read-out: Human T1/2
Description: Vortexing for 10 min, the sample was centrifuged with 5594×g for 15 min in centrifuger (Thermo Multifuge×3R). • 10) taking 50 μL supernatant from the centrifuged sample, transferred to 96 well sample plate contain 50 μL water, mixed, and the sample was analyzed using LC-MS/MS.

| SMILES | half-life at 1 µM [h] |
| --- | --- |
| O=C(C[n+]1ccc(NCc2ccccc2)cc1)c1ccccc1 [AB24807A] | 3.31 |
| O=C(C[n+]1ccc2c(c1)CCCC(c1ccccc1)N2)c1ccc(Cl)cc1 (stereo not shown) [AB24839] | 11.2 |
| O=C1c2ccc(Cl)cc2CC1[n+]1ccc(NCc2ccccc2)cc1 (stereo not shown) [AB24840A] | 2.33 |
| O=C1c2cc(Cl)ccc2CCC1[n+]1ccc(NCc2ccccc2)cc1 (stereo not shown) [AB24913] | 7.97 |
| O=C(C[n+]1ccc(NCc2ccccc2)nc1)c1ccc(-c2ccccc2)cc1 [AB24964] | 3.6 |

tested on: NCI-H82 cell; assay: Cell viability (Promega CellTiter-Glo) of NCI-H82 cell; assay type: cell-based; settings: Homo sapiens, NCI-H82
Description: Cell viability was detected using the Promega CellTiter-Glo kit, the kit reflected cell viability by directly measuring intracellular ATP content. Small cell lung cancer cell NCI-H82 (ATCC, No. HTB-175) was cultured in 10% fetal bovine serum-containing RPMI1640 medium (+P/S).
Cell viability was detected using the Promega CellTiter-Glo kit, the kit reflected cell viability by directly measuring intracellular ATP content.
Daoy cell was cultured in 10% fetal bovine serum-containing DMEM medium (+P/S), and NCI-H82 cell was cultured in 10% fetal bovine serum-containing RPMI1640 medium (+P/S).
Cell viability was detected using the Promega CellTiter-Glo kit, the kit reflected cell viability by directly measuring intracellular ATP content. In the experiment, the IC50 value of different compounds on different tumor cell lines was detected to determine cell lines that were sensitive or insensitive to different compounds.
Tumor cells were cultured in 10% FBS-containing medium (+p/s), and incubated for 3 h or the following day, then the gradient diluted compound was added. After 3 days of culture, the relevant IC50 (50% inhibiting concentration) was measured. The name, source and culture conditions of each tumor cell line were as follows:
Cell line NCI-H82 (ATCC, No. HTB-175) was cultured in 10% fetal bovine serum-containing RPMI1640 medium (+P/S).

| SMILES | IC50 [nM] |
| --- | --- |
| O=C(C[n+]1ccc2[nH]c(Cc3ccccc3)cc2c1)c1ccc(Cl)cc1 [AB24827A] | 2890 |
| O=C(C[n+]1ccc2cc(Cc3ccccc3)[nH]c2c1)c1ccc(Cl)cc1 [AB24828A] | 5790 |
| O=C(C[n+]1ccc2cc(-c3ccccc3)[nH]c2c1)c1ccc(Cl)cc1 [AB24831A] | 5410 |
| O=C(C[n+]1ccc2c(Cc3ccccc3)c[nH]c2c1)c1ccc(Cl)cc1 [AB24835A] | 2750 |
| O=C(C[n+]1ccc2c(Cc3ccccc3)c[nH]c2c1)c1ccc([N+](=O)[O-])cc1 [AB24863] | 3610 |
| Cc1ccc(C(=O)C[n+]2ccc3ccn(Cc4ccccc4)c3c2)cc1 [AB24945] | 4220 |

same assay, conditions: Homo sapiens; NCI-H82 cell, Table 1; read-out: IC50

| SMILES | IC50 [nM] |
| --- | --- |
| COc1ccc(C(=O)C[n+]2ccc(NCc3ccccc3)cc2)cc1 [AB24803A] | 230 |
| O=C(C[n+]1ccc(NCc2ccccc2)cc1)c1ccccc1 [AB24807A] | 540 |
| CC(C)(C(=O)c1ccc(Cl)cc1)[n+]1ccc(NCc2ccccc2)cc1 [AB24813] | 5930 |
| CC(Nc1cc[n+](CC(=O)c2ccc(Cl)cc2)cc1)c1ccccc1 (stereo not shown) [AB24814] | 5540 |
| O=C(C[n+]1ccc(NCc2ccccc2)cc1)c1ccc(Cl)nc1 [AB24817] | 4610 |
| Cc1cnc(C(=O)C[n+]2ccc(NCc3ccccc3)cc2)cn1 [AB24821] | 7170 |
| O=C(C[n+]1ccc(NCc2ccccn2)cc1)c1ccc(Cl)cc1 [AB24822] | 6700 |
| O=C(C[n+]1ccc2c(c1)CCC(c1ccccc1)N2)c1ccc(Cl)cc1 (stereo not shown) [AB24838] | 710 |
| O=C(C[n+]1ccc2c(c1)C=CCC(c1ccccc1)N2)c1ccc(Cl)cc1 (stereo not shown) [AB24839B] | 9130 |
| O=C(C[n+]1ccc2c(c1)CCCC(c1ccccc1)N2)c1ccc(Cl)cc1 (stereo not shown) [AB24839] | 990 |
| O=C1c2ccc(Cl)cc2CC1[n+]1ccc(NCc2ccccc2)cc1 (stereo not shown) [AB24840A] | 2590 |
| Cc1ccc(C(=O)Cn2cnc(/C=C/c3ccccc3)c2)cc1 [AB24850] | 5780 |
| Cc1ccc(C(=O)C[n+]2csc(NCc3ccccc3)c2)cc1 [AB24851] | 6570 |
| Cc1ccc(C(=O)C[n+]2ccc3c(Cc4cccc(Cl)c4)c[nH]c3c2)cc1 [AB24854] | 1570 |
| Cc1ccc(C(=O)C[n+]2ccc3c(Cc4ccccc4)c[nH]c3c2)cc1 [AB24859] | 2290 |
| Cc1ccccc1C(=O)C[n+]1ccc2c(Cc3ccccc3)c[nH]c2c1 [AB24861] | 4090 |
| Cc1ccc(C(=O)C[n+]2ccc3c(-c4cccc(C)c4)c[nH]c3c2)cc1 [AB24872] | 1240 |
| O=C(C[n+]1ccc2c(-c3ccccc3)c[nH]c2c1)c1cccc([N+](=O)[O-])c1 [AB24878] | 3580 |
| O=C(Nc1ccc([N+](=O)[O-])cc1)c1ccc(NCc2ccccc2)cc1 [AB24883] | 6370 |
| Cc1ccc(C(=O)C[n+]2ccc3c(c2)ncn3Cc2ccccc2)cc1 [AB24885] | 3130 |
| Cc1ccc(C(=O)C[n+]2ccc3c(ccn3Cc3ccccc3)c2)cc1 [AB24887] | 290 |
| O=C(C[n+]1ccc2c(ccn2Cc2ccccc2)c1)c1cccc([N+](=O)[O-])c1 [AB24888] | 850 |
| Cc1ccc(C(=O)C[n+]2ccc3c(ccn3-c3ccccc3)c2)cc1 [AB24895] | 2090 |
| O=C(C[n+]1ccc2c(-c3ccccc3)n[nH]c2c1)c1cccc([N+](=O)[O-])c1 [AB24898] | 6280 |
| Cc1cccc2c1C(=O)C([n+]1ccc(NCc3ccccc3)cc1)C2 (stereo not shown) [AB24904] | 3220 |

| SMILES | IC50 [nM] |
| --- | --- |
| Cc1ccc2c(c1)C(=O)C([n+]1ccc(NCc3ccccc3)cc1)C2 (stereo not shown) [AB24905] | 2520 |
| Cc1ccc2c(c1)CC([n+]1ccc(NCc3ccccc3)cc1)C2=O (stereo not shown) [AB24906] | 1660 |
| O=C1c2cc(Cl)ccc2CCC1[n+]1ccc(NCc2ccccc2)cc1 (stereo not shown) [AB24913] | 180 |
| Cc1ccc2c(c1)C(=O)C([n+]1ccc(NCc3ccccc3)cc1)CC2 (stereo not shown) [AB24916] | 380 |
| Cc1ccc2c(c1)CCC([n+]1ccc(NCc3ccccc3)cc1)C2=O (stereo not shown) [AB24917] | 120 |
| O=C1c2cc([N+](=O)[O-])ccc2CCC1[n+]1ccc(NCc2ccccc2)cc1 (stereo not shown) [AB24920] | 1010 |
| O=C1c2ncccc2CCC1[n+]1ccc(NCc2ccccc2)cc1 (stereo not shown) [AB24923] | 6850 |
| O=C1c2cnccc2CCC1[n+]1ccc(NCc2ccccc2)cc1 (stereo not shown) [AB24924] | 3960 |
| CC(C)c1c[nH]c2c[n+](CC(=O)c3cccc(Cl)c3)ccc12 [AB24938] | 3960 |
| O=C1c2cc(F)ccc2CCC1[n+]1ccc(NCc2ccccc2)cc1 (stereo not shown) [AB24948] | 100 |
| O=C1c2ccc(F)cc2CCC1[n+]1ccc(NCc2ccccc2)cc1 (stereo not shown) [AB24949] | 680 |
| COc1cccc2c1CCC([n+]1ccc(NCc3ccccc3)cc1)C2=O (stereo not shown) [AB24954] | 390 |
| Cc1ccc(C(=O)C[n+]2ccc(N(C)Cc3ccccc3)cc2)cc1 [AB24955] | 2800 |
| Cc1ccc(C(=O)C[n+]2ccc(N3Cc4ccccc4C3)cc2)cc1 [AB24956] | 770 |
| Cc1ccc(C(=O)C[n+]2ccc(N3CCc4ccccc4C3)cc2)cc1 [AB24957] | 1060 |
| Cc1ccc(C(=O)C[n+]2ccc(N3CCc4ccccc4C3=O)cc2)cc1 [AB24959] | 4110 |
| Cc1ccc2c(c1)CCC([n+]1ccc(NCc3ccccc3)nc1)C2=O (stereo not shown) [AB24961] | 540 |
| COc1ccc(C(=O)C[n+]2ccc(NCc3ccccc3)nc2)cc1 [AB24963] | 330 |
| O=C(C[n+]1ccc(NCc2ccccc2)nc1)c1ccc(-c2ccccc2)cc1 [AB24964] | 1090 |
| O=C(C[n+]1ccc(NCc2ccccc2)nc1)c1cccc(OC(F)(F)F)c1 [AB24967] | 3880 |
| Nc1cccc(C(=O)C[n+]2ccc(NCc3ccccc3)cc2)c1 [AB24983] | 3400 |
| O=C(C[n+]1ccc2c(ccn2Cc2ccccc2)c1)c1ccc(C(F)(F)F)cc1 [AB24987] | 2000 |
| O=C(C[n+]1ccc2c(ccn2Cc2ccccc2)c1)c1ccc(OC(F)(F)F)cc1 [AB24988] | 920 |
| O=C(C[n+]1ccc2c(ccn2Cc2ccccc2)c1)c1cccc(Cl)c1 [AB24991] | 340 |
| O=C1c2ccc(C(F)(F)F)cc2CCC1[n+]1ccc2c(ccn2Cc2ccccc2)c1 (stereo not shown) [AB24996] | 1350 |

| SMILES | IC50 [nM] |
| --- | --- |
| O=C(C[n+]1ccc2c(c1)CC(c1ccccc1)N2)c1ccc(OC(F)(F)F)cc1 (stereo not shown) [AB24999] | 1300 |
| O=C1c2ccc(C(F)(F)F)cc2CCC1[n+]1ccc2c(c1)CCC(c1ccccc1)N2 (stereo not shown) [AB27104] | 720 |
| O=C(C[n+]1ccc2c(Cc3ccccc3)c[nH]c2c1)c1ccc(C(F)(F)F)cc1 [AB27106] | 1620 |
| O=C(C[n+]1ccc2c(Cc3ccccc3)c[nH]c2c1)c1ccc(OC(F)(F)F)cc1 [AB27107] | 2180 |
| O=C1c2ccc(OC(F)(F)F)cc2CCC1[n+]1ccc(NCc2ccccc2)cc1 (stereo not shown) [AB27111] | 850 |
| O=C(C[n+]1ccc2[nH]c(Cc3ccccc3)cc2c1)c1ccc(C(F)(F)F)cc1 [AB27114] | 3930 |
| Cc1ccc(Cc2c[nH]c3c[n+](CC(=O)c4ccc(C(F)(F)F)cc4)ccc23)cc1 [AB27118] | 1720 |
| Cc1cc2c[n+](C3CCc4ccc(Cl)cc4C3=O)ccc2n1Cc1ccccc1 (stereo not shown) [AB27129] | 260 |
| Cc1ccc2c(c1)C(=O)C([n+]1ccc3c(c1)CCC(c1ccccc1)N3)CC2 (stereo not shown) [AB27133] | 340 |
| CCCn1ccc2c[n+](C3CCc4ccc(OC(F)(F)F)cc4C3=O)ccc21 (stereo not shown) [AB27145] | 250 |
| Cn1ccc2c[n+](C3CCc4ccc(C(F)(F)F)cc4C3=O)ccc21 (stereo not shown) [AB27148] | 2810 |
| CCn1ccc2c[n+](C3CCc4ccc(C(F)(F)F)cc4C3=O)ccc21 (stereo not shown) [AB27149] | 1980 |
| Cn1ccc2c[n+](C3CCc4ccc(OC(F)(F)F)cc4C3=O)ccc21 (stereo not shown) [AB27154] | 870 |
| CCn1ccc2c[n+](C3CCc4ccc(OC(F)(F)F)cc4C3=O)ccc21 (stereo not shown) [AB27155] | 650 |
| O=C1c2cc(OC(F)(F)F)ccc2CCC1[n+]1ccc2c(ccn2C2CC2)c1 (stereo not shown) [AB27158] | 550 |
| CC(c1ccccc1)n1ccc2c[n+](C3CCc4ccc(C(F)(F)F)cc4C3=O)ccc21 (stereo not shown) [AB27161] | 280 |
| CC(c1ccccc1)n1ccc2c[n+](C3CCc4ccc(OC(F)(F)F)cc4C3=O)ccc21 (stereo not shown) [AB27162] | 240 |
| Cc1ccc2c(c1)C(=O)C([n+]1ccc3c(ccn3C(C)c3ccccc3)c1)CC2 (stereo not shown) [AB27163] | 150 |
| CC(c1ccccc1)n1ccc2c[n+](C3CCc4ccc(Cl)cc4C3=O)ccc21 (stereo not shown) [AB27165] | 410 |
| CC(=O)N(Cc1ccccc1)c1cc[n+](CC(=O)c2ccc(C)cc2)cc1 [AB27166] | 160 |
| Cc1ccc(C(=O)C[n+]2ccc(NCc3ccccc3)c(C)c2)cc1 [AB27169] | 320 |
| Cc1cn(Cc2ccccc2)c2cc[n+](C3CCc4ccc(C(F)(F)F)cc4C3=O)cc12 (stereo not shown) [AB27174] | 100 |
| Cc1ccc2c(c1)C(=O)C([n+]1ccc3c(c1)c(C)cn3Cc1ccccc1)CC2 (stereo not shown) [AB27176] | 40 |
| Cc1ccc2c(c1)CCC([n+]1ccc3c(ccn3C(C)c3ccccc3)c1)C2=O (stereo not shown) [AB27184] | 230 |
